Data set [1] relates to Macrophage. In words: Antiinflammatory activity in human primary macrophages assessed as effect on LPS-induced CSF1 gene expression at 30 uM measured after 2 hrs by RT-PCR array (reference value: 287895 a.u.). Format: functional.
In data set [2] the test system is Macrophage. Kind of data set: Antiinflammatory activity in human primary macrophages assessed as effect on LPS-induced IFNA2 gene expression at 30 uM measured after 2 hrs by RT-PCR array (reference value: 1099 a.u.). Format: functional.
In data set [3] the test system is Macrophage. Kind of data set: Antiinflammatory activity in human primary macrophages assessed as effect on LPS-induced IFNK gene expression at 30 uM measured after 2 hrs by RT-PCR array (reference value: 724 a.u.). Format: functional.
Data set [4] relates to Macrophage. Kind of data set: Antiinflammatory activity in human primary macrophages assessed as effect on LPS-induced IL10 gene expression at 30 uM measured after 2 hrs by RT-PCR array (reference value: 47621 a.u.). Format: functional.
Data set [5] concerns Macrophage. In words: Antiinflammatory activity in human primary macrophages assessed as effect on LPS-induced IL18 gene expression at 30 uM measured after 2 hrs by RT-PCR array (reference value: 153374 a.u.). Format: functional.
The subject of data set [6] is Macrophage. Kind of data set: Antiinflammatory activity in human primary macrophages assessed as effect on LPS-induced IL1F6 gene expression at 30 uM measured after 2 hrs by RT-PCR array (reference value: 145 a.u.). Format: functional.
Data set [7] relates to Macrophage. In words: Antiinflammatory activity in human primary macrophages assessed as effect on LPS-induced IL1F9 gene expression at 30 uM measured after 2 hrs by RT-PCR array (reference value: 5170 a.u.). Format: functional.
Data set [8] relates to Macrophage. Kind of data set: Antiinflammatory activity in human primary macrophages assessed as effect on LPS-induced IL20 gene expression at 30 uM measured after 2 hrs by RT-PCR array (reference value: 2040 a.u.). Format: functional.
Data set [9] has as its system Macrophage. In words: Antiinflammatory activity in human primary macrophages assessed as effect on LPS-induced IL7 gene expression at 30 uM measured after 2 hrs by RT-PCR array (reference value: 60083 a.u.). Format: functional.
In data set [10] the test system is Macrophage. Kind of data set: Antiinflammatory activity in human primary macrophages assessed as effect on LPS-induced LTA gene expression at 30 uM measured after 2 hrs by RT-PCR array (reference value: 11322 a.u.). Format: functional.
Data set [11] deals with Macrophage. In words: Antiinflammatory activity in human primary macrophages assessed as effect on LPS-induced TGFB3 gene expression at 30 uM measured after 2 hrs by RT-PCR array (reference value: 524 a.u.). Format: functional.
Data set [12] has as its system Macrophage. Kind of data set: Antiinflammatory activity in human primary macrophages assessed as effect on LPS-induced TNF gene expression at 30 uM measured after 2 hrs by RT-PCR array (reference value: 7222474 a.u.). Format: functional.
Data set [13] concerns Macrophage. In words: Antiinflammatory activity in human primary macrophages assessed as effect on LPS-induced TNFSF12 gene expression at 30 uM measured after 2 hrs by RT-PCR array (reference value: 12514 a.u.). Format: functional.
The test system of data set [14] is Macrophage. In words: Antiinflammatory activity in human primary macrophages assessed as effect on LPS-induced TNFSF4 gene expression at 30 uM measured after 2 hrs by RT-PCR array (reference value: 880 a.u.). Format: functional.
Data set [15] deals with Macrophage. Kind of data set: Antiinflammatory activity in human primary macrophages assessed as effect on LPS-induced TXLNA gene expression at 30 uM measured after 2 hrs by RT-PCR array (reference value: 8115 a.u.). Format: functional.
The target in data set [16] is Lysine-specific demethylase 4D (Homo sapiens, UniProt Q6B0I6). Kind of data set: Inhibition of human JmjD2d using H3K27(me3) as substrate preincubated for 10 mins followed by substrate addition and measured after 7 mins in presence of alpha-KG by RapidFire Mass Spectrometry.
Data set [17] concerns the target Histone deacetylase 1 (Homo sapiens, UniProt Q13547). In words: Inhibition of human HDAC1 by FLINT assay.
Data set [18] concerns the target Histone deacetylase 4 (Homo sapiens, UniProt P56524). Kind of data set: Inhibition of human HDAC4 by FLINT assay.
Data set [19] addresses Histone deacetylase 5 (Homo sapiens, UniProt Q9UQL6). Kind of data set: Inhibition of human HDAC5 by FLINT assay.
Data set [20] deals with Histone deacetylase 7 (Homo sapiens, UniProt Q8WUI4). In words: Inhibition of human HDAC7 by FLINT assay.
Chain of Histone deacetylase 7 (Q8WUI4 whole entry): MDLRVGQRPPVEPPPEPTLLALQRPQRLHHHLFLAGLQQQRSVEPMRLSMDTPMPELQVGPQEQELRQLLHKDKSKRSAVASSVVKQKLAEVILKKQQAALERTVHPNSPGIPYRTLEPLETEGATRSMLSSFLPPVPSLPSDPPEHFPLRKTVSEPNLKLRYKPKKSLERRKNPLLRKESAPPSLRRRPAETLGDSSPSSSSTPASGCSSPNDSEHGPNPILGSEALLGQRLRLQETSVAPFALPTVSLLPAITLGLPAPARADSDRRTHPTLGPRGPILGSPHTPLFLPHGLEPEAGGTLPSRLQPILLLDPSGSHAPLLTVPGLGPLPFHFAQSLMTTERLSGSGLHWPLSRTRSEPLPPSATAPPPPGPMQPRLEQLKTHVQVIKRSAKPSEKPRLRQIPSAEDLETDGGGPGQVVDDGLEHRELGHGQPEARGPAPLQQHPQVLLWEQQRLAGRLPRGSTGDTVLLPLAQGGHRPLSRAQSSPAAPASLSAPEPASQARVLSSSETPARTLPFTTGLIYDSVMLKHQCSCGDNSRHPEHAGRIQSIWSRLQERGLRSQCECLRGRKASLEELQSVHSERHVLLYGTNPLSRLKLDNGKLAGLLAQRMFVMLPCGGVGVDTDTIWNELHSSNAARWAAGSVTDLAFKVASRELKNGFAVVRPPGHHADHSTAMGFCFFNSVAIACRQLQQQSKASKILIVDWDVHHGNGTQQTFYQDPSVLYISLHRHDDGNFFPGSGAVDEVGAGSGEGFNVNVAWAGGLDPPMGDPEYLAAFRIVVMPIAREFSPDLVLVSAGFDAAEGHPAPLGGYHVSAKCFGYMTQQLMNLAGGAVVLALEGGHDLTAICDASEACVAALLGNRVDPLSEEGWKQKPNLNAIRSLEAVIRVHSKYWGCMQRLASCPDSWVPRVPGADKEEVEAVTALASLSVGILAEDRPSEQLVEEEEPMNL
Data set [21] addresses Histone deacetylase 8 (Homo sapiens, UniProt Q9BY41). In words: Inhibition of human HDAC8 by FLINT assay.
Data set [22] has as its target 3',5'-cyclic-AMP phosphodiesterase 4B (Homo sapiens, UniProt Q07343). In words: Inhibition of human PDE4B by luminescence assay.
Data set [23] deals with T1, 5-hydroxytryptamine receptor 2C (Homo sapiens, UniProt P28335).
T1 sequence (P28335 whole entry): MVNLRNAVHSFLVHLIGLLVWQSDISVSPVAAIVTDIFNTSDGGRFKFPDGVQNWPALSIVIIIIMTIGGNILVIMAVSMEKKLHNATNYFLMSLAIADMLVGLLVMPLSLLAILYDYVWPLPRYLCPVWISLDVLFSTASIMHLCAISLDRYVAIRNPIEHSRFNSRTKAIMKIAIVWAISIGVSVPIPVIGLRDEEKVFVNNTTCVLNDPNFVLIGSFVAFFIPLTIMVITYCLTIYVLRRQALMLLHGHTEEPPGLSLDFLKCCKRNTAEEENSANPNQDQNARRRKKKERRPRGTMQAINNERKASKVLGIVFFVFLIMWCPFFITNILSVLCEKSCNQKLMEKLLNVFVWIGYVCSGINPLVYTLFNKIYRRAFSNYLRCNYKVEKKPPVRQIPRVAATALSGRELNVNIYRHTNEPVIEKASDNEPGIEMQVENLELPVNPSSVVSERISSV
Kind of data set: Agonist activity at human 5-HT2C by intracellular Ca luminescence assay. Format: functional, cell-based.

Data set [24] is described as follows: Antagonist activity at human 5-HT3 by intracellular Ca fluorescence assay. Format: cell-based.
For data set [25], the target named is Adenosine receptor A2a (Homo sapiens, UniProt P29274). In words: Agonist activity at human adenosine A2a by TR-FRET assay. Format: functional.
Chain of Adenosine receptor A2a (P29274 whole entry): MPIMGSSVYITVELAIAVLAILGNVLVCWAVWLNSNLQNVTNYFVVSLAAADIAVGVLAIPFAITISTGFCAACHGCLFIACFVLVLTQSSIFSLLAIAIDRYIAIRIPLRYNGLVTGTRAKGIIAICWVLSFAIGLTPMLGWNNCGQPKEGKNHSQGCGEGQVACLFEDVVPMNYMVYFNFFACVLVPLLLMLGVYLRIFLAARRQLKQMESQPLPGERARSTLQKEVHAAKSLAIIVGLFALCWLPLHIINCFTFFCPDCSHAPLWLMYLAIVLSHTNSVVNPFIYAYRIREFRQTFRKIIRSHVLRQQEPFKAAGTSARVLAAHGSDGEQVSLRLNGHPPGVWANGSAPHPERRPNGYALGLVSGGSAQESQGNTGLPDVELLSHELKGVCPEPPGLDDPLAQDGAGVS
The target of data set [26] is Alpha-1B adrenergic receptor (Homo sapiens, UniProt P35368). Kind of data set: Antagonist activity at human adrenergic alpha 1B by intracellular Ca luminescence assay. Format: functional, cell-based.
Chain of Alpha-1B adrenergic receptor (P35368 whole entry): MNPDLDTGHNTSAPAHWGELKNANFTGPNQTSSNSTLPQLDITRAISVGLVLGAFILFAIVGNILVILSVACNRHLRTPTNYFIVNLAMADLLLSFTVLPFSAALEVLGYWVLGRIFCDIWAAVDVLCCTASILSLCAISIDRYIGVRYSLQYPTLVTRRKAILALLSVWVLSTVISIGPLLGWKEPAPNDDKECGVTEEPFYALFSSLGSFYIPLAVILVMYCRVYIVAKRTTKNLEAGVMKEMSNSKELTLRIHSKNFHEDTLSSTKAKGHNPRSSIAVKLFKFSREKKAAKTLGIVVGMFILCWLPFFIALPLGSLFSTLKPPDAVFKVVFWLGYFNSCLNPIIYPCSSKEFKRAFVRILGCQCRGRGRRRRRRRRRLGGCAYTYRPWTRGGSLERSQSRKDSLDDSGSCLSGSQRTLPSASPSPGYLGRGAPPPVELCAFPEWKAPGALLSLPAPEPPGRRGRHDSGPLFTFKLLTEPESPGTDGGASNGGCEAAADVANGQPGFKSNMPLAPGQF
Data set [27] addresses Beta-2 adrenergic receptor (Homo sapiens, UniProt P07550). In words: Antagonist activity at human beta2 adrenoceptor by TR-FRET assay. Format: functional.
Data set [28] concerns the target Histamine H1 receptor (Homo sapiens, UniProt P35367). In words: Antagonist activity at human HRH1 by intracellular Ca luminescence assay. Format: functional, cell-based.
Data set [29] deals with T2, Kappa-type opioid receptor (Homo sapiens, UniProt P41145). In words: Agonist activity at human OPRK-1 by SPA. Format: functional.
T2 sequence (P41145 whole entry): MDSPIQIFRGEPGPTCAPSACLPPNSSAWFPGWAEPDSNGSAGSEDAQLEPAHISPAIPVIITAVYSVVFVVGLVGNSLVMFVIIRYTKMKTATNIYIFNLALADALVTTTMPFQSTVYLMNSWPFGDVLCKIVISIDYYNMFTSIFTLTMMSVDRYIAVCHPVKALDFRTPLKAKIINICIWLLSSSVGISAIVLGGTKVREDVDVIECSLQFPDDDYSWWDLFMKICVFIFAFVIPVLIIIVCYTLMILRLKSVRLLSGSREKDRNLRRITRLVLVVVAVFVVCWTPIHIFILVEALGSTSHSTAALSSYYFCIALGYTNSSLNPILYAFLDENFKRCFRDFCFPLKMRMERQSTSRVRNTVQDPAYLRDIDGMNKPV
For data set [30], the target named is T2, Kappa-type opioid receptor. In words: Antagonist activity at human OPRK-1 by SPA. Format: functional.
In data set [31] the target is T3, Acetylcholine receptor subunit alpha (Homo sapiens, UniProt P02708). In words: Antagonist activity at human alpha 1 nAChR by intracellular Ca fluorescence assay. Format: cell-based.
T3 sequence (P02708 whole entry): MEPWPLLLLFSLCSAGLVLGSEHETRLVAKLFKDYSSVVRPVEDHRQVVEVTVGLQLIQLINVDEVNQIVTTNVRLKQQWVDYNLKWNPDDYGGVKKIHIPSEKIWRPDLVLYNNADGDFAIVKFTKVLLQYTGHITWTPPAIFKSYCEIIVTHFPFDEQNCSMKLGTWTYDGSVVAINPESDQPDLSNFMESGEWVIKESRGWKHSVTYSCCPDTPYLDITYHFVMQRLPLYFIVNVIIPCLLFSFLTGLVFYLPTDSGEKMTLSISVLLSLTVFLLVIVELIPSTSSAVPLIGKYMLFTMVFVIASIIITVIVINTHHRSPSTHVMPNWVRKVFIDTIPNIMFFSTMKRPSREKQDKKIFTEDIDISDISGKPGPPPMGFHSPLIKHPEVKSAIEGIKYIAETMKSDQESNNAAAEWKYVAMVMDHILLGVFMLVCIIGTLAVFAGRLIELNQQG
Data set [32] deals with T3, Acetylcholine receptor subunit alpha. In words: Agonist activity at human alpha 1 nAChR by intracellular Ca fluorescence assay. Format: cell-based.
Data set [33] addresses OATP1B1 (SLCO1B1) (Homo sapiens, UniProt Q9Y6L6). In words: Blockade of human OATP1B1 by imaging analysis.
The nature of data set [34]: Drug uptake in human primary macrophage lysates at 30 uM measured after 1 hr by RP LC-MS/MS analysis. Format: ADME, subcellular.

Structures are written as SMILES. Where only a bound is given, the exact number is not on record here.

Chain of 3',5'-cyclic-AMP phosphodiesterase 4B (Q07343 whole entry): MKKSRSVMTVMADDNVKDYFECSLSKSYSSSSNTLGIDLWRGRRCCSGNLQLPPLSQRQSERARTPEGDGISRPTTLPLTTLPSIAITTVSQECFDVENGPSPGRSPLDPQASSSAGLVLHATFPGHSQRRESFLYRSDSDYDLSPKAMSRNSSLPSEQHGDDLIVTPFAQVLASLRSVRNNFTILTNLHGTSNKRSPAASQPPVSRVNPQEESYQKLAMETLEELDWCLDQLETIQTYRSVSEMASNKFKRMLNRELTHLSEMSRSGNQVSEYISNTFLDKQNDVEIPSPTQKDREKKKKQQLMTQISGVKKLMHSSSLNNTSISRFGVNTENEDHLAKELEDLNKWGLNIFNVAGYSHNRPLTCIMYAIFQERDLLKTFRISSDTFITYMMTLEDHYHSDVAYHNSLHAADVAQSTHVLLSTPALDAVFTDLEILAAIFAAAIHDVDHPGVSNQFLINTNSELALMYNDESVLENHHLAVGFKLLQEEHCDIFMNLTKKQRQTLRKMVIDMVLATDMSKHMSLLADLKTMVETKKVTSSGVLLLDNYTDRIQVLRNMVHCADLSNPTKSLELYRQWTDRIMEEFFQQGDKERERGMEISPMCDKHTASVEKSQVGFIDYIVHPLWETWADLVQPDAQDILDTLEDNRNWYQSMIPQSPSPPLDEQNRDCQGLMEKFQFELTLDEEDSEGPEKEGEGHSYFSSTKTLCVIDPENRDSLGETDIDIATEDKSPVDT
Chain of Histone deacetylase 8 (Q9BY41 whole entry): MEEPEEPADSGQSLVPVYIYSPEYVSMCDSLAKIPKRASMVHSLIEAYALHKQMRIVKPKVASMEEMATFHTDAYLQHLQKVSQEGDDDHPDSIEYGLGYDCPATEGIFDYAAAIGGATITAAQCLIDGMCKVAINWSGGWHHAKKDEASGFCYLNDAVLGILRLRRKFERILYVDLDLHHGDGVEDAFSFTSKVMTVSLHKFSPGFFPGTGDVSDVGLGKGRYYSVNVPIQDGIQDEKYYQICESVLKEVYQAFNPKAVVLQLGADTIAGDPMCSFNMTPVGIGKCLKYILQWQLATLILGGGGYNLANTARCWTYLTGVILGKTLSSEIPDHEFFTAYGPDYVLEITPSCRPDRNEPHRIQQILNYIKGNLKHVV
Chain of Beta-2 adrenergic receptor (P07550 whole entry): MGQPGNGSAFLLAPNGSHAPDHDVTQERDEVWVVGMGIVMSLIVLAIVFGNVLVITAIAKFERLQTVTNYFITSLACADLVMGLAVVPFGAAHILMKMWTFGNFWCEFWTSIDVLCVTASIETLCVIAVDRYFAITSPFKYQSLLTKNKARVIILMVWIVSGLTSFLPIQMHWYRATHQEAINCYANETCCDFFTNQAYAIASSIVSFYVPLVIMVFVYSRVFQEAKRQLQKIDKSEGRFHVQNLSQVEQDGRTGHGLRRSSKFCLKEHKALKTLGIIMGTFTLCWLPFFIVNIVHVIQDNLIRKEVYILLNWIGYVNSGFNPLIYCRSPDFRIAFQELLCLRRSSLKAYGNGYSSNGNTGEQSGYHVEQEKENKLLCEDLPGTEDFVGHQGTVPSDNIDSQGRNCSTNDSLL
Chain of Histone deacetylase 1 (Q13547 whole entry): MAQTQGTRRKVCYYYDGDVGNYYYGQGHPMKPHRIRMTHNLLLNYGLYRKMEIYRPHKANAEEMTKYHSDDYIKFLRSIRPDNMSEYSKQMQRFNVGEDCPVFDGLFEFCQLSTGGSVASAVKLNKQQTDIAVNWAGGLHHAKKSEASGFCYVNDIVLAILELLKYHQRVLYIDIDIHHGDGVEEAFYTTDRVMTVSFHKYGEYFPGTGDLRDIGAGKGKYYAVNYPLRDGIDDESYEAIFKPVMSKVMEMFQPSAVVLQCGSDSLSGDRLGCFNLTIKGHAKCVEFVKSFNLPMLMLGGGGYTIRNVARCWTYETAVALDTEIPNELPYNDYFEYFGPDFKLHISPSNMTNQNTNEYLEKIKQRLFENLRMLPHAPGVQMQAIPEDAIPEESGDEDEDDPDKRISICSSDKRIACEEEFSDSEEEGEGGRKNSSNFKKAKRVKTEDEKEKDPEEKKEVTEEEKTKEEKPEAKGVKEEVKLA

As to `CCOC(=O)CCNc1cc(N2CCc3ccccc3CC2)nc(-c2ccccn2)n1`, the Activity turned out to be 140386 a.u in data set [1]; 641 a.u in [2]; 3510 a.u in data set [3]; 4765 a.u in data set [4]; 74923 a.u in [5]; 1 a.u in data set [6]. Also, the Activity in [7] came to 476 a.u; in data set [8], 372 a.u; in data set [9], 4135 a.u; in [10], 708 a.u; in [11], 650 a.u; in data set [12], 1593909 a.u. In addition, the Activity is given as 8686 a.u in data set [13], 1586 a.u in data set [14] and 5959 a.u in data set [15].

`O=C(O)CCNc1cc(N2CCc3ccccc3CC2)nc(-c2ccccn2)n1`: the IC50 in data set [16] was 79 µM. The XC50 in [17] is more than 300 µM; in data set [18] it was more than 300 µM; in [19] it was more than 300 µM; in [20] it was more than 300 µM; in data set [21], more than 300 µM; in [22] it was 100 µM. For the same molecule, the XC50 was more than 40 µM in data set [23]; more than 4.3 µM in [24]; more than 32 µM in data set [25]; more than 40 µM in [26]; more than 32 µM in [27]; more than 40 µM in data set [28]. Also, the XC50 in data set [29] is more than 100 µM; in data set [30], 50 µM; in data set [31] it was 50 µM; in [32], more than 50 µM; in data set [33], more than 25 µM. Also, in [34], the Drug uptake amounted to 1.6 µM.

Consider `O=C(O)CCNc1cc(N2CCc3ccccc3CC2)nc(-c2cccnc2)n1`, for which the IC50 in [16] is more than 100 µM. Further, the XC50 is more than 300 µM in data set [17]; more than 300 µM in data set [18]; more than 300 µM in data set [19]; more than 300 µM in [20]; more than 300 µM in data set [21]; 40 µM in data set [22]. The XC50 in [23] is more than 40 µM; in [24], 25 µM; in data set [25], more than 32 µM; in data set [26], more than 40 µM; in data set [27] it was more than 32 µM; in data set [28], more than 40 µM. Moreover, the XC50 in [29] is more than 100 µM; in data set [30], 50 µM; in [31] it was 16 µM; in data set [32], more than 50 µM; in [33] it was 20 µM. Besides, the Drug uptake in [34] came out at 7.8 µM.

Take `CCOC(=O)CCNc1cc(N2CCc3ccccc3CC2)nc(-c2cccnc2)n1`: the Activity in data set [1] is 211785 a.u; in data set [2] it was 65 a.u; in [3], 339 a.u; in data set [4], 31748 a.u; in data set [5], 185197 a.u; in data set [6] it was 121 a.u. Further, the Activity in [7] was found to be 2413 a.u; in [8], 748 a.u; in [9], 24543 a.u; in data set [10] it was 9224 a.u; in data set [11], 357 a.u; in data set [12], 5261995 a.u. In addition, the Activity amounted to 10108 a.u in data set [13], 512 a.u in data set [14] and 6886 a.u in [15].

Values taken from ChEMBL document CHEMBL5678807, “A selective jumonji H3K27 demethylase inhibitor modulates the proinflammatory macrophage response” (Nature, 2012).
